Assays:
Assay type in all cases: in vivo
Swiss ICR mice = experiment: Acute toxicity, intraperitoneal (Litchfield-Wilcoxon); details: Swiss ICR mice of both sexes, 25 ± 2 g
Experimental: (§1) Acute toxicity studies were made in Swiss ICR mice of both sexes weighing 25 ± 2 g. The products were administered intraperitoneally. Acute toxicity calculations were made by the Litchfield-Wilcoxon method.

Swiss ICR albino mice [1] = experiment: Thermal analgesia, hot-plate technique at 55° C.; details: for Jumping time (mean ± S.E.M.): 30 mg/kg, intraperitoneal, 30 minutes, hot-plate 55° C., control 50.1 ± 3.16
Experimental: The thermal analgesia effect was studied in Swiss ICR albino mice. The hot-plate technique at 55° C. was used. The […] were divided into batches of 10.
The products being studied were administered intraperitoneally and after 30 minutes the animals were placed on the hot-plate, the time in seconds being counted until the animals started to jump. Batches of control animals which had received injections of distilled water only were used.

[2] = Acute toxicity, intraperitoneal (Litchfield-Wilcoxon); details: mouse, in vivo, ip, Swiss ICR mice of both sexes, 25 ± 2 g, read-out: Lethal Dose 50 (LD50)
Experimental: as §1

Swiss ICR albino mice [3] = experiment: Chemical analgesia, acetic acid writhing technique
Experimental: The analgesic effect was studied in Swiss ICR albino mice using the acetic acid writhing technique. The animals were divided into batches of 10.
The products studied were administered intraperitoneally and after 30 minutes 0.25 ml of 1% acetic acid was injected intraperitoneally. A batch of control animals was given only the acetic acid. The number of writhings made by each mouse in the 20 minutes after the administration of the acetic acid was counted.

## CCC(=O)O[C@](Cc1ccccc1)(c1ccccc1)[C@H](C)CN(C)C [Dextropropoxyphene, dextropropoxyphene, reference compound]
Swiss ICR mice
  Lethal Dose 50 (LD50): 140 mg/kg
Swiss ICR albino mice [1]
  Jumping time (mean ± S.E.M.): 91 ± 17.17 s

## COc1cc(C(O)C2CC(C)=CCN2C)cc(OC)c1OC (stereo not shown) [Product VIII, 3,4,5-trimethoxyphenyl-(1,4-dimethyl-1,2,3,6-tetrahydro-2-pyridyl)-carbinol]
[2]
  LD50: 201 mg/kg
Swiss ICR albino mice [3]; 30 mg./kg., intraperitoneal, 30 minutes before acetic acid, counted over 20 minutes, control 93
  No. of writhings (mean ± S.E.M.): 58.8 ± 10.2
Swiss ICR albino mice [3]; conclusion in words, compared with dextropropoxyphene
  chemical analgesic activity: same intensity as dextropropoxyphene
Swiss ICR albino mice [1]
  Jumping time (mean ± S.E.M.): 51.8 ± 5.46 s
Swiss ICR albino mice [1]; conclusion in words
  thermal analgesic activity: lacks thermal analgesic activity

From patent US4111945A, “Process for the preparation of 3,4,5-trimethoxy-phenyl-(1,4-dimethyl-1,2,3,6-tetrahydro-2-pyridyl)-carb inol” (Laboratories Made, S.A., priority 1976, dated 1978)
